Molecular target: ATP-binding cassette sub-family C member 2 (Homo sapiens, UniProt Q92887)
Assay: TP_TRANSPORTER: secretion into apical vacuoles in Hep G2 cells
Format: functional, cell-based
Settings: hepg2

Chain of ATP-binding cassette sub-family C member 2 (Q92887 whole entry): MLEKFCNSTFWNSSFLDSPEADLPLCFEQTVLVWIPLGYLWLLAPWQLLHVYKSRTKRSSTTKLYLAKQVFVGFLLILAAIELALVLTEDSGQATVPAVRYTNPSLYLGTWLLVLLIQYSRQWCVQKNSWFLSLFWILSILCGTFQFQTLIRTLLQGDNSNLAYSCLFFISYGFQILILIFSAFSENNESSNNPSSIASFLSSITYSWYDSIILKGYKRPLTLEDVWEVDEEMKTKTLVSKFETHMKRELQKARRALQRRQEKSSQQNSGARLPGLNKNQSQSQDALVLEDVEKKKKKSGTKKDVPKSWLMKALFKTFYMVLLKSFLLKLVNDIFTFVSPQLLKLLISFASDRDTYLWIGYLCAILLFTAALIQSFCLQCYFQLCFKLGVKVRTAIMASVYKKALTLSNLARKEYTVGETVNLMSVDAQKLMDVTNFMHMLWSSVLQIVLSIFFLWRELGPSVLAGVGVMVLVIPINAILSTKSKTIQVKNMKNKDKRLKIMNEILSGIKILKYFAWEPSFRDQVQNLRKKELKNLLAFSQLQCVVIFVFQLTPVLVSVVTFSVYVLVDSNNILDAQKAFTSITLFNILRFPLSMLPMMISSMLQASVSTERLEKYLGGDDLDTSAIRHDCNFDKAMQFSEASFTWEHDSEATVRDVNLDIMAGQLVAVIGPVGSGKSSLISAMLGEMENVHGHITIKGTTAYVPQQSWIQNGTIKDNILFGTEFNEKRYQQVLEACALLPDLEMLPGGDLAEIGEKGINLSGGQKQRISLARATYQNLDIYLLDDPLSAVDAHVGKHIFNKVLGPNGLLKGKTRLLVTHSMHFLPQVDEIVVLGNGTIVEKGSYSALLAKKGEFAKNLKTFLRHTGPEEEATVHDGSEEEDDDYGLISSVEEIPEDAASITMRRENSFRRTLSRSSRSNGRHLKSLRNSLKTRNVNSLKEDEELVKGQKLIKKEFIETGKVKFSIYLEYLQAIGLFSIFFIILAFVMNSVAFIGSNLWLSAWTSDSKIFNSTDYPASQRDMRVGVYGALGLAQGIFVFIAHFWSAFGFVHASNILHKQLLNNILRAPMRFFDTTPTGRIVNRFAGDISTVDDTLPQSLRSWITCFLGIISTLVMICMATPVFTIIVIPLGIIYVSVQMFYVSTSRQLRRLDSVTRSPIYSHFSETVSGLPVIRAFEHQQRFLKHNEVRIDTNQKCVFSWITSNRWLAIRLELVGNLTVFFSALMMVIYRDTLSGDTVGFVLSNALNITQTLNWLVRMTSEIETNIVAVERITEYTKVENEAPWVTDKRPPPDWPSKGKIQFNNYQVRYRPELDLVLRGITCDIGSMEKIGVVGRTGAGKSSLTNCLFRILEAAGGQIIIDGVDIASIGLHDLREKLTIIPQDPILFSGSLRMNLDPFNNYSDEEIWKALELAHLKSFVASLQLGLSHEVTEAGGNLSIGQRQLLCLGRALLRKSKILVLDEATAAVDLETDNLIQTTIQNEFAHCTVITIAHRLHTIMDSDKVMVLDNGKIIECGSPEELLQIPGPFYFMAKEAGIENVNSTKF

Activity | Structure (SMILES)
substrate [+] | Cc1ccc(N(CC(=O)O)CC(=O)O)c(OCCOc2cc(-c3c4cc(Cl)c(=O)cc-4oc4cc(O)c(Cl)cc34)ccc2N(CC(=O)O)CC(=O)O)c1
substrate [+] | CC(CCC(=O)NCC(=O)Nc1ccc(-c2c3ccc(=O)cc-3oc3cc(O)ccc23)c(C(=O)O)c1)[C@H]1CC[C@H]2[C@@H]3[C@H](O)CC4C[C@H](O)CC[C@]4(C)[C@H]3C[C@H](O)[C@]12C (some centres undefined)
substrate [+] | O=C1OC2(c3ccc(O)cc3Oc3cc(O)ccc32)c2ccccc21 [FLUORESCEIN]

Structure (SMILES) | Activity
CC(CCC(=O)NC(CCCCNc1ccc([N+](=O)[O-])c2nonc12)COO)[C@H]1CC[C@H]2[C@@H]3[C@H](O)CC4C[C@H](O)CC[C@]4(C)[C@H]3CC[C@]12C (some centres undefined) | substrate [+]

Reference: ChEMBL document CHEMBL2073786, “MRP2, a human conjugate export pump, is present and transports fluo 3 into apical vacuoles of Hep G2 cells” (Am J Physiol Gastrointest Liver Physiol, 2000)
